Reference: ChEMBL document CHEMBL4507276 (2021)

Assays:
[1] = biological target: RAF proto-oncogene serine/threonine-protein kinase (Homo sapiens) (UniProt P04049); conditions: Compound concentration 1000.0 nM
[2] = biological target: Misshapen-like kinase 1 (Homo sapiens) (UniProt Q8N4C8); conditions: Compound concentration 1000.0 nM
[3] = biological target: T1, TGF-beta receptor type-1 (Homo sapiens) (UniProt P36897); conditions: Compound concentration 1000.0 nM
T1 sequence (whole entry): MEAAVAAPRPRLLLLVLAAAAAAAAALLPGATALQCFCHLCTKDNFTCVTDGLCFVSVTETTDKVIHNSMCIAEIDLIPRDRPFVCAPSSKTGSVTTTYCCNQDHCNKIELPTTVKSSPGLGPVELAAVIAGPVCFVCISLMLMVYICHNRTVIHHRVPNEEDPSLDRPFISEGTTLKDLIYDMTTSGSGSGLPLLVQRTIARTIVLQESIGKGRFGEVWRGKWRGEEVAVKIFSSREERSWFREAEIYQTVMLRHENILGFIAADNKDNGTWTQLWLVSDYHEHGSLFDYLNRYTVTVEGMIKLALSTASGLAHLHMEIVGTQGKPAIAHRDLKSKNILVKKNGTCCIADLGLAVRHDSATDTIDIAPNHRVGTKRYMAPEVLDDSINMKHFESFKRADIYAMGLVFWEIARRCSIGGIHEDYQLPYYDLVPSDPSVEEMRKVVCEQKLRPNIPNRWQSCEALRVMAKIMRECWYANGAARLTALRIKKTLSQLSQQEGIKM

[4] = biological target: Phosphatidylinositol 4,5-bisphosphate 3-kinase catalytic subunit alpha isoform (Homo sapiens) (UniProt P42336); conditions: Compound concentration 1000.0 nM
Sequence of Phosphatidylinositol 4,5-bisphosphate 3-kinase catalytic subunit alpha isoform (Homo sapiens) (P42336 whole entry, canonical isoform): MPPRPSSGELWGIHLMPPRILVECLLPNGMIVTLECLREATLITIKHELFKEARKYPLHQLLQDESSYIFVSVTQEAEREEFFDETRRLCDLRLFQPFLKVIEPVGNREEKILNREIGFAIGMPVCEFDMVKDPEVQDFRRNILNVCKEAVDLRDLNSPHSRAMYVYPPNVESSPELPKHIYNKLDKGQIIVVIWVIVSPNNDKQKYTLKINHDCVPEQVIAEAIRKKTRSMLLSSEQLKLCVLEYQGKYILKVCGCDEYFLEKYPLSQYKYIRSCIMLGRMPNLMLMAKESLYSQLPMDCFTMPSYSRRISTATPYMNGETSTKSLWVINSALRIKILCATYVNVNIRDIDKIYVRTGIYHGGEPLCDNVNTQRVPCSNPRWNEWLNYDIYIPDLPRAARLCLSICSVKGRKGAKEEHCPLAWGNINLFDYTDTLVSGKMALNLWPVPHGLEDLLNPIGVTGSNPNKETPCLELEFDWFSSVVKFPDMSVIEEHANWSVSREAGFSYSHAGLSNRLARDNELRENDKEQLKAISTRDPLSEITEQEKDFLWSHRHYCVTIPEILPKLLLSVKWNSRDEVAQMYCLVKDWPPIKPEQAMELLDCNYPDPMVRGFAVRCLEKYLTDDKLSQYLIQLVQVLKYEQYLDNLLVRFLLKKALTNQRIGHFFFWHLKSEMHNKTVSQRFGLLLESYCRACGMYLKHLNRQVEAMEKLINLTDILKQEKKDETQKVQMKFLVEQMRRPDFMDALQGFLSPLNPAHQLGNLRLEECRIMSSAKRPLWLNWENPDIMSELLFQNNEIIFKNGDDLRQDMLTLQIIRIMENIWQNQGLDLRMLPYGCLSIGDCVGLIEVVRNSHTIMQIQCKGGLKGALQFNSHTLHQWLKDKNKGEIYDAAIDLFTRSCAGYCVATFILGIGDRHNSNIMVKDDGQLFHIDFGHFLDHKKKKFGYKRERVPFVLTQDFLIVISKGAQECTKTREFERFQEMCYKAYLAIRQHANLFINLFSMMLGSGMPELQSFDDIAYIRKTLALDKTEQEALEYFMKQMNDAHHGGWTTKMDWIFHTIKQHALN

[5] = test system: Epidermal growth factor receptor (Homo sapiens), P00533 [G719C]; conditions: Compound concentration 1000.0 nM
[6] = biological target: Phosphatidylinositol 4,5-bisphosphate 3-kinase catalytic subunit delta isoform (Homo sapiens) (UniProt O00329); conditions: Compound concentration 1000.0 nM
[7] = biological target: Leucine-rich repeat serine/threonine-protein kinase 2 (Homo sapiens) (UniProt Q5S007); conditions: Compound concentration 1000.0 nM
Sequence of Leucine-rich repeat serine/threonine-protein kinase 2 (Homo sapiens) (Q5S007 whole entry): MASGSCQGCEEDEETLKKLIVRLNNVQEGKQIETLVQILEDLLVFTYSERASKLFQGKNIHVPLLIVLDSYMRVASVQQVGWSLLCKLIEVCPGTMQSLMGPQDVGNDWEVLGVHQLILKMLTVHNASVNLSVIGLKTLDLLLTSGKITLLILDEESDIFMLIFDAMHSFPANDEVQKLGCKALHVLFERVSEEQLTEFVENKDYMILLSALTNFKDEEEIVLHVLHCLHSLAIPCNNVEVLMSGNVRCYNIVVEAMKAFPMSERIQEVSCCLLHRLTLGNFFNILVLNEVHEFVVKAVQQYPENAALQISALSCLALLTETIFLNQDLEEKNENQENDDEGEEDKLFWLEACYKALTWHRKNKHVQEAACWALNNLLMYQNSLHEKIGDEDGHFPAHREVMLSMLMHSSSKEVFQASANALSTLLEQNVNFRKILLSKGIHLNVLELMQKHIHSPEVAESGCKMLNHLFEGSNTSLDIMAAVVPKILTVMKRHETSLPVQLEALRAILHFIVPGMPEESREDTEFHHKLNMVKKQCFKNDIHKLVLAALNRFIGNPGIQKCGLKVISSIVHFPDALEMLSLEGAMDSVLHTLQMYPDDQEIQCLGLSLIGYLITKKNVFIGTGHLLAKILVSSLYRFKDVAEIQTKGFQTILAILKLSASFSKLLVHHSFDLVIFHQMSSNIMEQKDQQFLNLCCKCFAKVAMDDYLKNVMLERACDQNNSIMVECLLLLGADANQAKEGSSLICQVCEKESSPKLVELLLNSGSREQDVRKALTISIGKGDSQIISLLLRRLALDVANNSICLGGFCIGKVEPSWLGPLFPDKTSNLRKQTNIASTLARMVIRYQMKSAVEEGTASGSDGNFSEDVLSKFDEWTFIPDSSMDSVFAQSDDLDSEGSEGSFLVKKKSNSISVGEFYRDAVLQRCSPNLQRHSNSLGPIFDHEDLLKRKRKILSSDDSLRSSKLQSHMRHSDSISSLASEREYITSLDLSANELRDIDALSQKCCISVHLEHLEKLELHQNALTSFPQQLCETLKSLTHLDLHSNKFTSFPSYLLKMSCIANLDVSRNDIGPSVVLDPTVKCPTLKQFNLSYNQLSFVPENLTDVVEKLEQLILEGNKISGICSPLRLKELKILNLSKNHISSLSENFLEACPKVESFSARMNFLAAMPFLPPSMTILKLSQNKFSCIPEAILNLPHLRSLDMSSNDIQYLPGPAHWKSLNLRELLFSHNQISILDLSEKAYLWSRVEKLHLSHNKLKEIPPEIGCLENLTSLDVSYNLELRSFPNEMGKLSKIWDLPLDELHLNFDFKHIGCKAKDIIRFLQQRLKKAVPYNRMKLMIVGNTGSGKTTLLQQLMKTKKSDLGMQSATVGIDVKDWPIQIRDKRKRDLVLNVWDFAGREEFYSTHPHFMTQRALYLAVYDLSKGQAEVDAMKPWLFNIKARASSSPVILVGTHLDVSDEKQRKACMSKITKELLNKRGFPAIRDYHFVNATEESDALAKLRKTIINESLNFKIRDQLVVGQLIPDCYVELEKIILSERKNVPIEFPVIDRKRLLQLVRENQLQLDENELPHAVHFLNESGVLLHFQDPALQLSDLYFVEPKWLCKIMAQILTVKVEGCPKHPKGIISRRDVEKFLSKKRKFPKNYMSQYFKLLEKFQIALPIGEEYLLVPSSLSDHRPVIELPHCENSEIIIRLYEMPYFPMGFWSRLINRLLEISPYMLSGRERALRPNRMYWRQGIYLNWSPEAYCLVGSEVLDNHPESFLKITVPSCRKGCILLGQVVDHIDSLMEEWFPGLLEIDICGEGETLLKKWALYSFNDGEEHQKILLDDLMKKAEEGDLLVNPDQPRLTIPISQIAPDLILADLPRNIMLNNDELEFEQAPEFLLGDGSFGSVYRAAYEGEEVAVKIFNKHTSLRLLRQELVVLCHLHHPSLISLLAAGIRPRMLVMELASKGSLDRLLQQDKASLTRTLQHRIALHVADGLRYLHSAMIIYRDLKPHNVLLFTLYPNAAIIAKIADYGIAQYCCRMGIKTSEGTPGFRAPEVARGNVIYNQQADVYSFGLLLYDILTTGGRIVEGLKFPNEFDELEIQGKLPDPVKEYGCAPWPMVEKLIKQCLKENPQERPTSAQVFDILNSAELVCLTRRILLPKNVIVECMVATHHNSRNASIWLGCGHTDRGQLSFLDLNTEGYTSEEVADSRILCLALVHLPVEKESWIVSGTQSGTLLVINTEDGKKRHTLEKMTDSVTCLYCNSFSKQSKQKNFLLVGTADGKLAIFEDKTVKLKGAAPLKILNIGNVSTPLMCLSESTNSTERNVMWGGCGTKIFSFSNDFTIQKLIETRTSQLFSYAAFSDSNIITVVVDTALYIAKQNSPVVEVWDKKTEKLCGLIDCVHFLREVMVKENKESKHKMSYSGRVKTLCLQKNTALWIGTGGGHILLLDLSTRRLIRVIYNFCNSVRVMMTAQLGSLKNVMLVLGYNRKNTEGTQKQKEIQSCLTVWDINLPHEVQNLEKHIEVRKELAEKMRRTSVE

[8] = biological target: 5-hydroxytryptamine receptor 5A (Homo sapiens) (UniProt P47898); conditions: Compound concentration 10.0 uM
Sequence of 5-hydroxytryptamine receptor 5A (Homo sapiens) (P47898 whole entry): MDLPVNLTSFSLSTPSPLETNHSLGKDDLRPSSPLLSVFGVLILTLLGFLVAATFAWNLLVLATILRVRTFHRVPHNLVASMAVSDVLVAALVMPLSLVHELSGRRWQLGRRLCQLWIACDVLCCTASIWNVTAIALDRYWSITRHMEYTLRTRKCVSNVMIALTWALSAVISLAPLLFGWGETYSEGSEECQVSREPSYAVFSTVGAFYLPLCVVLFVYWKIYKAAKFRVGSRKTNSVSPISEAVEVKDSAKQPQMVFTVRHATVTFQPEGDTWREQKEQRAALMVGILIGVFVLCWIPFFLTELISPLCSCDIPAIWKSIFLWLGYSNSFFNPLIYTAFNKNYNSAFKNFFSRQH

[9] = test system: Mast/stem cell growth factor receptor Kit (Homo sapiens), P10721 [V559D,T670I]; conditions: Compound concentration 1000.0 nM
[10] = biological target: Mitogen-activated protein kinase kinase kinase 1 (Homo sapiens) (UniProt Q13233); conditions: Compound concentration 1000.0 nM
[11] = biological target: 5'-AMP-activated protein kinase catalytic subunit alpha-1 (Homo sapiens) (UniProt Q13131); conditions: Compound concentration 1000.0 nM
Sequence of 5'-AMP-activated protein kinase catalytic subunit alpha-1 (Homo sapiens) (Q13131 whole entry, looked up): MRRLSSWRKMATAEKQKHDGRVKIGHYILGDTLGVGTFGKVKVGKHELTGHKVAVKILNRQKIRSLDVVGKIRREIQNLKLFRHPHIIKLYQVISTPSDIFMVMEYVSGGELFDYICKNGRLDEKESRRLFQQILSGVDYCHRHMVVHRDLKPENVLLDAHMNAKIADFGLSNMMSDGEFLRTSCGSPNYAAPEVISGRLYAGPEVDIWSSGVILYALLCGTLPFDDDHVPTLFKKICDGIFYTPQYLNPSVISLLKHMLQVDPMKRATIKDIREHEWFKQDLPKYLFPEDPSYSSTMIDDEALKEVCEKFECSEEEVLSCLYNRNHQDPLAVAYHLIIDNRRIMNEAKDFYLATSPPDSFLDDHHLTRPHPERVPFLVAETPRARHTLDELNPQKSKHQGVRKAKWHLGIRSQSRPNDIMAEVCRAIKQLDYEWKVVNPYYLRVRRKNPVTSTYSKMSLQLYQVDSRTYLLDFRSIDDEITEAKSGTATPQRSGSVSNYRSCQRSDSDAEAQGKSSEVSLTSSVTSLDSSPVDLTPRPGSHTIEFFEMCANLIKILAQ

[12] = biological target: T2, Serine/threonine-protein kinase 17A (Homo sapiens) (UniProt Q9UEE5); conditions: Compound concentration 1000.0 nM
T2 sequence (whole entry): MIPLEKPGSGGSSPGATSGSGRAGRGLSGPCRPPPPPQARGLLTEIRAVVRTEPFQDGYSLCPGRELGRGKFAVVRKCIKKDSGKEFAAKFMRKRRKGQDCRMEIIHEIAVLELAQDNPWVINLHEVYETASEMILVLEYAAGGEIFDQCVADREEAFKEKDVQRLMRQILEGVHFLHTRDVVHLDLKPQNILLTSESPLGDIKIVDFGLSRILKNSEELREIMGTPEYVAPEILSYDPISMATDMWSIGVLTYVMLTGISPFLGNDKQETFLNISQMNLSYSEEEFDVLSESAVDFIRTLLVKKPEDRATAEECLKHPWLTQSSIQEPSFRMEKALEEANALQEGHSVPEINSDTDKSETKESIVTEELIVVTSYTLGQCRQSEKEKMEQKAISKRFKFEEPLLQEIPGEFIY

[13] = test system: Receptor-type tyrosine-protein kinase FLT3 (Homo sapiens), P36888 [D835V]; conditions: Compound concentration 1000.0 nM
[14] = test system: Epidermal growth factor receptor (Homo sapiens), P00533 [UNDEFINED MUTATION]; conditions: Compound concentration 1000.0 nM
[15] = biological target: TRAF2 and NCK-interacting protein kinase (Homo sapiens) (UniProt Q9UKE5); conditions: Compound concentration 1000.0 nM
[16] = biological target: RAC-gamma serine/threonine-protein kinase (Homo sapiens) (UniProt Q9Y243); conditions: Compound concentration 1000.0 nM
[17] = biological target: Casein kinase II subunit alpha' (Homo sapiens) (UniProt P19784); conditions: Compound concentration 1000.0 nM
Sequence of Casein kinase II subunit alpha' (Homo sapiens) (P19784 whole entry, looked up): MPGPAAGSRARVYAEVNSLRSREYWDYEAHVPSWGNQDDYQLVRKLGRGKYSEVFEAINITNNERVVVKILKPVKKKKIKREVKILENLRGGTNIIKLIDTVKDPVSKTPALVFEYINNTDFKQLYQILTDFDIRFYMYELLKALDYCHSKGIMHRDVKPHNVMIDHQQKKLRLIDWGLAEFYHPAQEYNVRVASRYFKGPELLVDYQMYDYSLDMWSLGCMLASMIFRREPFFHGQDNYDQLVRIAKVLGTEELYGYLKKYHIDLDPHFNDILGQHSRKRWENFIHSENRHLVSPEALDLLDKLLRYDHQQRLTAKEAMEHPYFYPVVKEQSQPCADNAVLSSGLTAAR

[18] = biological target: T3, Mitogen-activated protein kinase kinase kinase 7 (Homo sapiens) (UniProt O43318); conditions: Compound concentration 1000.0 nM
T3 sequence (whole entry): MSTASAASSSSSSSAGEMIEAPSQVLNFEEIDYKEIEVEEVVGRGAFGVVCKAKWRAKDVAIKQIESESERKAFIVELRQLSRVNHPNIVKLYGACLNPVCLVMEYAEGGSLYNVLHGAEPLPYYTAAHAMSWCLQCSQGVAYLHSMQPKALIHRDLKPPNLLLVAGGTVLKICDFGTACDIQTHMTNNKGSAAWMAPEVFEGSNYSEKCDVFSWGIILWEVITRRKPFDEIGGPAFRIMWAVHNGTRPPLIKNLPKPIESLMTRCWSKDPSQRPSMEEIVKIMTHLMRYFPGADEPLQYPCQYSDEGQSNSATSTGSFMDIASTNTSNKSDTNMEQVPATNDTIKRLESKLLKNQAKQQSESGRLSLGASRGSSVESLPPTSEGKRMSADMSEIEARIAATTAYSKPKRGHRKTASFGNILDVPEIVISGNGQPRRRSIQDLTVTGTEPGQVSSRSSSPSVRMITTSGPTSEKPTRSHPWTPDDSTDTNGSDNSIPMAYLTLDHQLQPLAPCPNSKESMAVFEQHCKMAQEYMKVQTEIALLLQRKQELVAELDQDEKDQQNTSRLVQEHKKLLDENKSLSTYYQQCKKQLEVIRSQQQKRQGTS

[19] = biological target: Mitogen-activated protein kinase kinase kinase 6 (Homo sapiens) (UniProt O95382); conditions: Compound concentration 1000.0 nM
[20] = test system: Tyrosine-protein kinase ABL1 (Homo sapiens), P00519 [Q252H]; conditions: Compound concentration 1000.0 nM
[21] = biological target: Serine/threonine-protein kinase ICK (Homo sapiens) (UniProt Q9UPZ9); conditions: Compound concentration 1000.0 nM
[22] = biological target: Phosphatidylinositol 4,5-bisphosphate 3-kinase catalytic subunit beta isoform (Homo sapiens) (UniProt P42338); conditions: Compound concentration 1000.0 nM
[23] = test system: Hepatocyte growth factor receptor (Homo sapiens), P08581 [M1250T]; conditions: Compound concentration 1000.0 nM

| Structure (SMILES) | residual activity [1] | residual activity [2] | residual activity [3] | residual activity [4] | residual activity [5] | residual activity [6] | residual activity [7] | inhibition [8] | residual activity [9] | residual activity [10] | residual activity [11] | residual activity [12] | residual activity [13] | residual activity [14] | residual activity [15] | residual activity [16] | residual activity [17] | residual activity [18] | residual activity [19] | residual activity [20] | also measured |
| --- | --- | --- | --- | --- | --- | --- | --- | --- | --- | --- | --- | --- | --- | --- | --- | --- | --- | --- | --- | --- | --- |
| CN(C)C(=O)Cn1cc(-c2nc(C3(c4ccc(-c5cnc(N)nc5)cc4)CC3)no2)cn1 [BI 0153] | 100% | 91% | 97% | 76% | 100% | 100% | 100% | 0.23% | 100% | 77% | 98% | 100% | 49% | 79% | 100% | 87% | 100% | 72% | 78% | 100% | residual activity [21]: 76%; residual activity [22]: 96%; residual activity [23]: 100% |
| CN(C)C(=O)Cn1cc(-c2nc([C@@](C)(c3ccc(-c4cnc(N)nc4)cc3)C3CC3)no2)cn1 [BI 665915] | 100% | 85% | 100% | 96% | 85% | 93% | 74% | -4.97% | 81% | 90% | 95% | 100% | 72% | 75% | 100% | 100% | 90% | 50% | 90% | 83% | residual activity [21]: 100%; residual activity [22]: 100%; residual activity [23]: 93% |
